Data reported in patent US8871749B2, “Bone-transplant or bone-filling composition comprising a dihydroxybenzoic acid derivative” (Cellsafe Co., Ltd., priority 2010, dated 2014).
Values after ≈ are worked out from the molar mass of the structure shown.

Columns and labels:
[1] = test system: mandiblar molars transplanted into the kidney of female mouse (C57BL/6); test: Alveolar bone formation activity, compound-soaked collagen bead in mandiblar molar transplanted into mouse kidney; format: in vivo; conditions: for response vs control in vivo at 1000 µg/mL: 504 h, collagen bead dipped in 1 mg/ml solution (1-2 μg compound), molar transplanted into mouse kidney, after 3 weeks, stained area vs negative control (100%); for Alveolar bone formation activity (in words): mouse kidney transplant of molar with compound bead, 3 weeks
Procedure: Each compound of Example 1 was dissolved in a sterile biological saline to obtain a solution having a concentration of 1 mg/ml. Collagen bead (diameter: 1×2 mm, Gibco) used as a bone-grafting material was dipped into each solution at 37° C. for 45 minutes. Each resulting wet bead includes about 1-2 μl of the solution, and therefore 1-2 μg of each compound. Mandiblar molars before tooth-root formation were isolated from mice. The wet bead was inserted in the center of dental pulp of each isolated mandiblar molar, using tweezers. The resulting mandiblar molars were transplanted into the kidney of female mouse (C57BL/6). After 3 weeks, the growing molar teeth were fixed with a formalin solution and then stained with a Morse's solution. The stained sites were visualized under a microscope (Olympus IX71) and then the area was measured with an imageWarp software (London, England). The effects of the compounds on alveolar bone formation were evaluated by comparing with the negative control (100%).

[2] = Cytotoxicity test (MTT); conditions: mouse, L929 cells
Procedure: (§1) In order to evaluate the cytotoxicities of the compounds designed in Example 1, L929 cells (RIKEN Cell Bank, Japan) (1×10^4 cells per well) were placed on each well of a 96-well plate and then cultured for 12 hours. The cells were treated with each compound in predetermined concentrations and then cultured for 48 hours. After removing the medium, a MTT (3-(4,5-dimethylthiazol-2-yl)-2,5-diphenyltetrazolium bromide) solution (100 μl per well) was added to the cells, which were then incubated for 4 hours. After removing the supernatant, each well was treated with a DMSO solution (100 μl per well) and then incubated at room temperature for 10 minutes for extraction. An absorbance at 550 nm was measured with an ELISA reader (Bio-Tek instrument). The CC50 (Cytotoxic Concentration 50%) values were determined by comparing with a negative control (no treatment).

[3] = test system: MC3T3-E1 cells; test: Alkaline phosphatase (ALP) activity of osteoblasts; format: cell-based; conditions: 7 days; for activity at 5 µg/mL: Mus musculus, 168 h, compound 5 μg/ml, relative to negative control (100); for ALP activity (in words): 5 μg/ml
Procedure: After removing the medium, α-MEM supplemented with β-glycerophosphate and ascorbic acid were added thereto as a differentiation-inducing agent for osteoblasts. Each compound of Example 1 was added to the culture medium in the final concentration of 5 μg/ml. The plate containing the cells was cultured for 7 days. 100 μl of a cell lysis buffer (Sigma, Catalog number: MCL1) was added to the cells, which were then incubated at 37° C. for 30 minutes. The resulting mixture (50 μl) was reacted with p-nitrophenyl phosphate as a substrate in a 0.1N glycine-NaOH buffer (pH 9.8), at 37° C. for 30 minutes. Each amount of p-nitrophenol released from the substrate was quantified by measuring an absorbance at 405 nm using an ELISA reader (Bio-Tek instrument). […] The alkaline phosphatase activities were calculated by obtaining relative absorbance differences through comparing with a negative control (no treatment).

[4] = test system: MC3T3-E1 cells; test: In-vitro bone nodules of osteoblasts (calcium accumulation); format: cell-based; conditions: 27 days; for activity at 5 µg/mL: Mus musculus, 648 h, compound 5 μg/ml, relative to negative control (100); for Calcium accumulation in the cells (in words): 5 μg/ml
Procedure: MC3T3-E1 cells (RIKEN Cell Bank, Japan) (2×10^3 cells per well) as an osteoblast cell line were placed on each well of a 24-well plate and then cultured for 24 hours. The medium was changed with α-MEM supplemented with β-glycerophosphate and ascorbic acid as a differentiation-inducing agent for osteoblasts. Each compound of Example 1 was added to the culture medium in the final concentration of 5 μg/ml. The plate containing the cells was cultured for 27 days while changing the medium every three days or every four days. […] No treatment was made to the negative control. In order to quantify the amount of calcium accumulated in the cells, the cells were washed with a biological saline, and then calcium (Ca) was extracted with a 0.5N HCl solution for 6 hours on an agitator. The extracted solution (100 μl) was reacted with a Calcium Reagent (Sigma, USA) at room temperature for 5 minutes. […] The amount of calcium accumulated in the cells was calculated by obtaining relative absorbance differences through comparing with a negative control (no treatment).

[5] = in vitro; conditions: mouse
Procedure: as §1

SMILES | response vs control in vivo at 1000 µg/mL [1] [%] | CC50 at 48 h [2] [µg/mL] | activity at 5 µg/mL [3] [%] | activity at 5 µg/mL [4] [%] | CC50 at 48 h [5] [µg/mL] | Alveolar bone formation activity (in words) [1] | ALP activity (in words) [3] | Calcium accumulation in the cells (in words) [4]
O=C(O)c1cccc(O)c1O [NP21, 2,3-dihydroxybenzoic acid] | 110 | 150 (≈ 973 µM) | 147 | 132 | – | – | – | –
O=C(O)c1ccc(O)cc1O [NP22, 2,4-dihydroxybenzoic acid] | 121 | – | 153 | 159 | 150 (≈ 973 µM) | – | – | –
O=C(O)c1cc(O)ccc1O [NP23, 2,5-dihydroxybenzoic acid] | 119 | 200 (≈ 1300 µM) | 152 | 163 | – | – | – | –
CCOC(=O)c1ccc(O)c(O)c1 [NP31, ethyl 3,4-dihydroxybenzoate] | 150 | 100 (≈ 549 µM) | 200 | 180 | – | – | – | –
O=C(O)c1cc(O)cc(O)c1 [NP32, 3,5-dihydroxybenzoic acid] | 123 | 150 (≈ 973 µM) | 155 | 163 | – | – | – | –
CCOC(=O)c1ccc(O)cc1O [NP33, ethyl 2,4-dihydroxybenzoate] | 300 | 100 (≈ 549 µM) | 430 | 420 | – | most excellent alveolar bone formation activities | most excellent ALP activities | most excellent calcium accumulation in the cells
COC(=O)c1ccc(O)cc1O [NP34, methyl 2,4-dihydroxybenzoate] | 130 | 150 (≈ 892 µM) | 149 | 158 | – | – | – | –
CCOC(=O)c1cc(O)ccc1O [NP35, ethyl 2,5-dihydroxybenzoate] | 450 | 150 (≈ 823 µM) | 560 | 580 | – | most excellent alveolar bone formation activities | most excellent ALP activities | most excellent calcium accumulation in the cells
CCOC(=O)c1c(O)cccc1O [NP36, ethyl 2,6-dihydroxybenzoate] | 121 | 200 (≈ 1100 µM) | 157 | 160 | – | – | – | –
CCOC(=O)c1cc(O)cc(O)c1 [NP37, ethyl 3,5-dihydroxybenzoate] | 122 | 150 (≈ 823 µM) | 153 | 159 | – | – | – | –
